Measured values taken from US11547681B2, “N-acylethanolamide derivatives and uses thereof” (ELIEM THERAPEUTICS, INC., priority 2016, dated 2023).

What was measured:
[1] = in vitro; settings: for Measured concentration of PEA (analyte) / % Remaining of Initial: 1 μM; for % Remaining of Initial / microsomal CLint at 1 μM / half-life at 1 μM: microsomes
Description: The reaction mixture, minus cofactors, was prepared as described below. The test article was added into the reaction mixture at a final concentration of 1 μM. […] An aliquot of the reaction mixture (without cofactor) was equilibrated in a shaking water bath at 37° C. for 3 minutes. The reaction was initiated by the addition of cofactor, and the mixture was incubated in a shaking water bath at 37° C. Aliquots (100 μL) were withdrawn at 0, 10, 20, 30, and 60 minutes. All samples were immediately combined with 400 μL of ice-cold 50/50 acetonitrile/H2O containing 0.1% formic acid and internal standard to terminate the reaction. The samples were then mixed and centrifuged to precipitate proteins. Calibration standards were prepared in matched matrix. All samples and standards were assayed by LC-MS/MS using electrospray ionization for both the dosed prodrug I-9 and the expected drug (PEA). Analytical conditions are outlined in Appendix 4-1. The test article concentration at each time point was compared to the test article concentration at time 0 to determine the percent remaining at each time point. Half-lives were calculated using GraphPad software, fitting to a single-phase exponential decay equation.
(§1) Reaction mixture, minus cofactors, was prepared as described below. Test article was added into the reaction mixture at a final concentration of 1 μM. […] An aliquot of the reaction mixture (without cofactor) was equilibrated in a shaking water bath at 37° C. for 3 minutes. The reaction was initiated by the addition of cofactor, and the mixture was incubated in a shaking water bath at 37° C. Aliquots (100 μL) were withdrawn at 0, 10, 20, 30, and 60 minutes. Test article samples were immediately combined with 300 μL of ice-cold acetonitrile containing 1% formic acid. Control samples were immediately combined with 400 μL of ice-cold 50/50 acetonitrile (ACN)/dH2O containing 0.1% formic acid and internal standard to terminate the reaction. Samples were then mixed and centrifuged to precipitate proteins. Calibration standards were prepared in matched matrix. Samples and standards were assayed by LC-MS/MS using electrospray ionization for both dosed prodrug and expected drug (PEA). Analytical conditions are outlined in Appendix 8-1. Test article concentration at each time point was compared to test article concentration at time 0 to determine the percent remaining at each time point. Half-lives were calculated using GraphPad software, fitting to a single-phase exponential decay equation.
(§2) Reaction mixture, minus cofactors, was prepared as described below. Test article was added into the reaction mixture at a final concentration of 1 μM. […] An aliquot of the reaction mixture (without cofactor) was equilibrated in a shaking water bath at 37° C. for 5 minutes. Reaction was initiated by the addition of cofactor, and the mixture was incubated in a shaking water bath at 37° C. Aliquots (100 μL) were withdrawn at 0, 10, 20, 30, and 60 minutes. Test article samples were immediately combined with 300 μL of ice-cold acetonitrile containing 1% formic acid. Control samples were immediately combined with 400 μL of ice-cold 50/50 acetonitrile (ACN)/dH2O containing 0.1% formic acid and internal standard to terminate the reaction. Samples were then mixed and centrifuged to precipitate proteins. Calibration standards were prepared in matched matrix. Samples and standards were assayed by LC-MS/MS using electrospray ionization for both the dosed prodrug and the expected drug (PEA). Analytical conditions are outlined in Appendix 10-1. Test article concentration at each time point was compared to the test article concentration at time 0 to determine the percent remaining at each time point. Half-lives were calculated using GraphPad software, fitting to a single-phase exponential decay equation.
Reaction mixture, minus cofactors, was prepared as described below. Test article was added into the reaction mixture at a final concentration of 1 μM.

[2] = in vitro; settings: male; for Measured concentration of PEA (analyte) / % Remaining of Initial: 1 μM; for % Remaining of Initial / microsomal CLint at 1 μM / half-life at 1 μM: microsomes
Description: as §1, §2
as §1, with “minutes. Reaction” for “minutes. The reaction”, “300 μL,” for “300 μL”, “Appendix 13-1.” for “Appendix 8-1.”
Reaction mixture, minus cofactors, was prepared as described below.

[3] = both, human, calculated value in parentheses
[4] = male, Sprague-Dawley, rat, 10 min
[5] = male, Sprague-Dawley, rat, 20 min
[6] = male, Sprague-Dawley, rat, calculated value in parentheses

## CCCCCCCCCCCCCCCC(=O)NCCOC(=O)CCC(=O)OC(CO)CO [Compound I-8]
[1]; both, human, 0 min
  Measured concentration of PEA (analyte): 0.063 µM
[1]; both, human, 10 min
  Measured concentration of PEA (analyte): 0.34 µM
  % Remaining of Initial: 2.8%
[1]; both, human, 20 min
  Measured concentration of PEA (analyte): 0.25 µM
  % Remaining of Initial: <1.0%
[1]; both, human, 30 min
  Measured concentration of PEA (analyte): 0.21 µM
[1]; both, human, 60 min
  Measured concentration of PEA (analyte): 0.070 µM
[1]; both, human, 0 h
  % Remaining of Initial: 100%
[1]; both, human, 0.5 h
  % Remaining of Initial: <1.0%
[1]; both, human, 1 h
  % Remaining of Initial: <1.0%
[1]; both, human
  microsomal CLint at 1 μM: > 139 µL/min/mg
  half-life at 1 μM: < 10 min
[1]; [3]
  microsomal CLint at 1 μM: 712 µL/min/mg
  half-life at 1 μM: 2 min
[1]; male, Sprague-Dawley, rat, 0 min
  Measured concentration of PEA (analyte): 0.033 µM
[1]; [4]
  Measured concentration of PEA (analyte): 0.041 µM
  % Remaining of Initial: 4.3%
[1]; [5]
  Measured concentration of PEA (analyte): 0.019 µM
  % Remaining of Initial: 1.2%
[1]; male, Sprague-Dawley, rat, 30 min
  Measured concentration of PEA (analyte): 0 µM
[1]; male, Sprague-Dawley, rat, 60 min
  Measured concentration of PEA (analyte): 0 µM
[1]; male, Sprague-Dawley, rat, 0 h
  % Remaining of Initial: 100%
[1]; male, Sprague-Dawley, rat, 0.5 h
  % Remaining of Initial: <1.0%
[1]; male, Sprague-Dawley, rat, 1 h
  % Remaining of Initial: <1.0%
[1]; male, Sprague-Dawley, rat
  microsomal CLint at 1 μM: > 139 µL/min/mg
  half-life at 1 μM: < 10 min
[1]; [6]
  microsomal CLint at 1 μM: 624 µL/min/mg
  half-life at 1 μM: 2.2 min
[2]; Beagle, dog, 0 min
  Measured concentration of PEA (analyte): 0.33 µM
[2]; Beagle, dog, 10 min
  Measured concentration of PEA (analyte): 0.54 µM
  % Remaining of Initial: <1.0%
[2]; Beagle, dog, 20 min
  Measured concentration of PEA (analyte): 0.46 µM
  % Remaining of Initial: <1.0%
[2]; Beagle, dog, 30 min
  Measured concentration of PEA (analyte): 0.44 µM
[2]; Beagle, dog, 60 min
  Measured concentration of PEA (analyte): 0.20 µM
[2]; Beagle, dog, 0 h
  % Remaining of Initial: 100%
[2]; Beagle, dog, 0.5 h
  % Remaining of Initial: <1.0%
[2]; Beagle, dog, 1 h
  % Remaining of Initial: <1.0%
[2]; Beagle, dog
  microsomal CLint at 1 μM: > 1380 µL/min/mg
  half-life at 1 μM: < 1 min
[2]; CD-1, mouse, 0 min
  Measured concentration of PEA (analyte): 0.45 µM
[2]; CD-1, mouse, 10 min
  Measured concentration of PEA (analyte): 0.30 µM
  % Remaining of Initial: <1.0%
[2]; CD-1, mouse, 20 min
  Measured concentration of PEA (analyte): 0.15 µM
  % Remaining of Initial: <1.0%
[2]; CD-1, mouse, 30 min
  Measured concentration of PEA (analyte): 0.086 µM
[2]; CD-1, mouse, 60 min
  Measured concentration of PEA (analyte): 0 µM
[2]; CD-1, mouse, 0 h
  % Remaining of Initial: 100%
[2]; CD-1, mouse, 0.5 h
  % Remaining of Initial: <1.0%
[2]; CD-1, mouse, 1 h
  % Remaining of Initial: <1.0%
[2]; CD-1, mouse
  microsomal CLint at 1 μM: > 1380 µL/min/mg
  half-life at 1 μM: < 1 min
